Source: PubChem BioAssay AID2060345 (Molecular Pharmacology Branch, DTP, NCI, 2025)
Where “and” joins values, the source holds several entries; their conditions need not be identical. Equal entries are not always repeated.

System: MALME-3M multicell spheroids, viability
Assay: Anticancer human tumor MALME-3M cell line growth inhibition [TAK];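 further: spheroids exposed to drugs for seven days before readout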;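 on viability, T/C: 100% = DMSO vehicle control viability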
Conditions: for viability, T/C: stronger effect = lower value
In short: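 Drug combinations, each paired with TAK-243 or ipatasertib, were tested on multi-cell spheroids of 60% malignant cells, 25% HUVEC and 15% hMSC. Top concentrations were at or near the clinical Cmax (10 microM if undetermined), decreasing by half-log; viability is given as % test/control.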

[1] = curve of first compound, second compound 0.3 µM
[2] = curve of first compound, second compound 0.949 µM
[3] = curve of first compound, second compound 3 µM
[4] = curve of first compound, second compound 9.49 µM
[5] = curve of first compound, second compound 30 µM
[6] = second compound 0.3 µM, first compound 0.000316 µM
[7] = second compound 0.3 µM, first compound 0.001 µM
[8] = second compound 0.3 µM, first compound 0.00316 µM
[9] = second compound 0.3 µM, first compound 0.01 µM
[10] = second compound 0.949 µM, first compound 0.000316 µM
[11] = second compound 0.949 µM, first compound 0.001 µM
[12] = second compound 0.949 µM, first compound 0.00316 µM
[13] = second compound 0.949 µM, first compound 0.01 µM
[14] = second compound 3 µM, first compound 0.000316 µM
[15] = second compound 3 µM, first compound 0.001 µM
[16] = second compound 3 µM, first compound 0.00316 µM
[17] = second compound 3 µM, first compound 0.01 µM
[18] = second compound 9.49 µM, first compound 0.000316 µM
[19] = second compound 9.49 µM, first compound 0.001 µM
[20] = second compound 9.49 µM, first compound 0.00316 µM
[21] = second compound 9.49 µM, first compound 0.01 µM
[22] = second compound 30 µM, first compound 0.000316 µM
[23] = second compound 30 µM, first compound 0.001 µM
[24] = second compound 30 µM, first compound 0.00316 µM
[25] = second compound 30 µM, first compound 0.01 µM
[26] = second compound 0.3 µM, first compound 0.0316 µM
[27] = second compound 0.3 µM, first compound 0.1 µM
[28] = second compound 0.949 µM, first compound 0.0316 µM
[29] = second compound 0.949 µM, first compound 0.1 µM
[30] = second compound 3 µM, first compound 0.0316 µM
[31] = second compound 3 µM, first compound 0.1 µM
[32] = second compound 9.49 µM, first compound 0.0316 µM
[33] = second compound 9.49 µM, first compound 0.1 µM
[34] = second compound 30 µM, first compound 0.0316 µM
[35] = second compound 30 µM, first compound 0.1 µM

## CC(C)CC(NC(=O)C(Cc1ccccc1)NC(=O)c1cnccn1)B(O)O (centres undefined) + CC(C)NCC(C(=O)N1CCN(c2ncnc3c2C(C)CC3O)CC1)c1ccc(Cl)cc1
[1]
  IC50: 2.51 nM
[2]
  IC50: 2.26 nM
[3]
  IC50: 2.29 nM
[4]
  IC50: 1.86 nM
[5]
  IC50: 1.05 nM
Second compound 0.3 µM, first compound 31.6 pM
  viability, T/C: 124%
Second compound 0.3 µM, first compound 0.0001 µM
  viability, T/C: 103%
[6]
  viability, T/C: 108%
[7]
  viability, T/C: 122%
[8]
  viability, T/C: 33.9%
[9]
  viability, T/C: 0.71%
Second compound 0.949 µM, first compound 31.6 pM
  viability, T/C: 113%
Second compound 0.949 µM, first compound 0.0001 µM
  viability, T/C: 110%
[10]
  viability, T/C: 107%
[11]
  viability, T/C: 111%
[12]
  viability, T/C: 25.4%
[13]
  viability, T/C: 0.85%
Second compound 3 µM, first compound 31.6 pM
  viability, T/C: 86.4%
Second compound 3 µM, first compound 0.0001 µM
  viability, T/C: 95.8%
[14]
  viability, T/C: 91.2%
[15]
  viability, T/C: 91.5%
[16]
  viability, T/C: 33.9%
[17]
  viability, T/C: 0.73%
Second compound 9.49 µM, first compound 31.6 pM
  viability, T/C: 81%
Second compound 9.49 µM, first compound 0.0001 µM
  viability, T/C: 87.5%
[18]
  viability, T/C: 75.5%
[19]
  viability, T/C: 83.4%
[20]
  viability, T/C: 22.7%
[21]
  viability, T/C: 0.55%
Second compound 30 µM, first compound 31.6 pM
  viability, T/C: 54.9%
Second compound 30 µM, first compound 0.0001 µM
  viability, T/C: 57.2%
[22]
  viability, T/C: 52%
[23]
  viability, T/C: 51.7%
[24]
  viability, T/C: 13.2%
[25]
  viability, T/C: 0.96%

## CC(C)CC(NC(=O)CNC(=O)c1cc(Cl)ccc1Cl)B1OC(=O)CC(CC(=O)O)(C(=O)O)O1 (centres undefined) + CC(C)NCC(C(=O)N1CCN(c2ncnc3c2C(C)CC3O)CC1)c1ccc(Cl)cc1
[1]
  IC50: 16.8 nM
[2]
  IC50: 17.5 nM
[3]
  IC50: 9.34 nM
[4]
  IC50: 11.8 nM
[5]
  IC50: < 0.316 nM
[6]
  viability, T/C: 109%
[7]
  viability, T/C: 97.2%
[8]
  viability, T/C: 90.6%
[9]
  viability, T/C: 82.6%
[26]
  viability, T/C: 10.4%
[27]
  viability, T/C: 0.25%
[10]
  viability, T/C: 92.4%
[11]
  viability, T/C: 89%
[12]
  viability, T/C: 95.4%
[13]
  viability, T/C: 87.2%
[28]
  viability, T/C: 10.7%
[29]
  viability, T/C: 0.17%
[14]
  viability, T/C: 90.5%
[15]
  viability, T/C: 77%
[16]
  viability, T/C: 77.5%
[17]
  viability, T/C: 49.1%
[30]
  viability, T/C: 6.98%
[31]
  viability, T/C: 0.17%
[18]
  viability, T/C: 70.9%
[19]
  viability, T/C: 68%
[20]
  viability, T/C: 64.8%
[21]
  viability, T/C: 57.6%
[32]
  viability, T/C: 5.18%
[33]
  viability, T/C: 0.17%
[22]
  viability, T/C: 48.2%
[23]
  viability, T/C: 49.8%
[24]
  viability, T/C: 45.2%
[25]
  viability, T/C: 30.9%
[34]
  viability, T/C: 4.73%
[35]
  viability, T/C: 0.24%

## Cc1nc(NC(=O)N2CCCC2C(N)=O)sc1-c1ccnc(C(C)(C)C(F)(F)F)c1 (centres undefined)
Compound 0.0316 µM
  viability, T/C: 100% and 86.7%
Compound 0.1 µM
  viability, T/C: 98.8% and 96.3%
Compound 0.316 µM
  viability, T/C: 83.6% and 72.6%
Compound 1 µM
  viability, T/C: 70.6% and 81.7%
Compound 3.16 µM
  viability, T/C: 61.6% and 68.2%
Compound 10 µM
  viability, T/C: 50% and 41.9%
Curve of compound
  IC50: > 10000 nM and 7080 nM

## CC(=O)Nc1cccc(-n2c(=O)n(C3CC3)c(=O)c3c(Nc4ccc(I)cc4F)n(C)c(=O)c(C)c32)c1 + CC(C)NCC(C(=O)N1CCN(c2ncnc3c2C(C)CC3O)CC1)c1ccc(Cl)cc1
[1]
  IC50: 0.422 nM
[2]
  IC50: 0.468 nM
[3]
  IC50: 0.251 nM
[4]
  IC50: 0.181 nM
[5]
  IC50: < 0.0949 nM
Second compound 0.3 µM, first compound 94.9 pM
  viability, T/C: 107%
Second compound 0.3 µM, first compound 0.0003 µM
  viability, T/C: 62.2%
Second compound 0.3 µM, first compound 0.000949 µM
  viability, T/C: 20.4%
Second compound 0.3 µM, first compound 0.003 µM
  viability, T/C: 14.8%
Second compound 0.3 µM, first compound 0.00949 µM
  viability, T/C: 10.7%
Second compound 0.3 µM, first compound 0.03 µM
  viability, T/C: 4.75%
Second compound 0.949 µM, first compound 94.9 pM
  viability, T/C: 99.9%
Second compound 0.949 µM, first compound 0.0003 µM
  viability, T/C: 68.3%
Second compound 0.949 µM, first compound 0.000949 µM
  viability, T/C: 20.4%
Second compound 0.949 µM, first compound 0.003 µM
  viability, T/C: 13.9%
Second compound 0.949 µM, first compound 0.00949 µM
  viability, T/C: 9.51%
Second compound 0.949 µM, first compound 0.03 µM
  viability, T/C: 5.18%
Second compound 3 µM, first compound 94.9 pM
  viability, T/C: 84.4%
Second compound 3 µM, first compound 0.0003 µM
  viability, T/C: 44.2%
Second compound 3 µM, first compound 0.000949 µM
  viability, T/C: 19.2%
Second compound 3 µM, first compound 0.003 µM
  viability, T/C: 11.1%
Second compound 3 µM, first compound 0.00949 µM
  viability, T/C: 7.71%
Second compound 3 µM, first compound 0.03 µM
  viability, T/C: 2.69%
Second compound 9.49 µM, first compound 94.9 pM
  viability, T/C: 70.4%
Second compound 9.49 µM, first compound 0.0003 µM
  viability, T/C: 33.8%
Second compound 9.49 µM, first compound 0.000949 µM
  viability, T/C: 15.5%
Second compound 9.49 µM, first compound 0.003 µM
  viability, T/C: 10.1%
Second compound 9.49 µM, first compound 0.00949 µM
  viability, T/C: 4.94%
Second compound 9.49 µM, first compound 0.03 µM
  viability, T/C: 1.67%
Second compound 30 µM, first compound 94.9 pM
  viability, T/C: 44.2%
Second compound 30 µM, first compound 0.0003 µM
  viability, T/C: 25%
Second compound 30 µM, first compound 0.000949 µM
  viability, T/C: 10.5%
Second compound 30 µM, first compound 0.003 µM
  viability, T/C: 4.22%
Second compound 30 µM, first compound 0.00949 µM
  viability, T/C: 2.32%
Second compound 30 µM, first compound 0.03 µM
  viability, T/C: 0.3%

## CC(C)n1nc(-c2ccc3oc(N)nc3c2)c2c(N)ncnc21
Compound 0.000316 µM
  viability, T/C: 78.4% and 94.5%
Compound 0.001 µM
  viability, T/C: 64.4% and 88.7%
Compound 0.00316 µM
  viability, T/C: 63% and 77.5%
Compound 0.01 µM
  viability, T/C: 47.5% and 70.1%
Compound 0.0316 µM
  viability, T/C: 28.3% and 33%
Compound 0.1 µM
  viability, T/C: 10.5% and 13.6%
Curve of compound
  IC50: 7.44 nM and 18.1 nM

## COC1CC2CCC(C)C(O)(O2)C(=O)C(=O)N2CCCCC2C(=O)OC(C(C)CC2CCC(OCCO)C(OC)C2)CC(=O)C(C)C=C(C)C(O)C(OC)C(=O)C(C)CC(C)C=CC=CC=C1C (centres undefined) + CC(C)NCC(C(=O)N1CCN(c2ncnc3c2C(C)CC3O)CC1)c1ccc(Cl)cc1
[1]
  IC50: > 100 nM
[2]
  IC50: 8.97 nM
[3]
  IC50: 1.51 nM
[4]
  IC50: 0.42 nM
[5]
  IC50: < 0.316 nM
[6]
  viability, T/C: 87.7%
[7]
  viability, T/C: 69.2%
[8]
  viability, T/C: 64.3%
[9]
  viability, T/C: 55.7%
[26]
  viability, T/C: 53.8%
[27]
  viability, T/C: 51.3%
[10]
  viability, T/C: 89.9%
[11]
  viability, T/C: 71.5%
[12]
  viability, T/C: 49.9%
[13]
  viability, T/C: 51.8%
[28]
  viability, T/C: 50%
[29]
  viability, T/C: 42.4%
[14]
  viability, T/C: 70.5%
[15]
  viability, T/C: 55.4%
[16]
  viability, T/C: 40.7%
[17]
  viability, T/C: 32.1%
[30]
  viability, T/C: 38%
[31]
  viability, T/C: 29.5%
[18]
  viability, T/C: 54.4%
[19]
  viability, T/C: 37.1%
[20]
  viability, T/C: 26%
[21]
  viability, T/C: 26.4%
[32]
  viability, T/C: 23.6%
[33]
  viability, T/C: 21.8%
[22]
  viability, T/C: 36.2%
[23]
  viability, T/C: 32.8%
[24]
  viability, T/C: 20.7%
[25]
  viability, T/C: 22.1%
[34]
  viability, T/C: 19.9%
[35]
  viability, T/C: 19.1%
